Converted amounts (≈) assume the structure as drawn. Residues, ends and D or L forms follow the SMILES beside them. *: point of attachment. Myristoyl = CCCCCCCCCCCCCC(=O)*; Acm = CC(=O)NC*
What was measured:
E. faecium ATCC 700221 = type: cell-based, Enterococcus faecium; conditions: ATCC 700221, 18 h
Text: (§1) The Acinetobacter baumannii ATCC BAA-1605, Candida albicans ATCC 10231, Enterococcus faecium ATCC 700221, Klebsiella aerogenes ATCC 13048 (previously known as Enterobacter aerogenes), Klebsiella pneumoniae ATCC 700603, Pseudomonas aeruginosa ATCC 9027, Staphylococcus aureus ATCC 25923 and MRSA ATCC 33591, were acquired from the American Type Culture Collection (ATCC). Before running the tests, beads with cryo-protected microorganisms were transferred into fresh MHB (BioMaxima, Lublin, Poland) for bacteria or RPMI-1640 for fungi and incubated for 24 h at 37 °C. Then, the culture was seeded on the Mueller-Hinton agar (MHA) plates (BioMaxima, Lublin, Poland) for bacteria or Sabouraud dextrose agar (SDA) plates (BioMaxima, Lublin, Poland) for fungi and incubated as just mentioned. Cell densities for all assays were adjusted spectrophotometrically (Multiskan™ GO Microplate Spectrophotometer, Thermo Fisher Scientific, Vantaa, Finland) at 600 nm for bacteria and at 530 nm for fungi.
(§2) The MICs were determined by broth microdilution method according to the Clinical and Laboratory Standard Institute guidelines. For this purpose initial inoculums of bacteria (5 × 10^5 CFU/mL) in MHB (BioMaxima, Lublin, Poland) and fungi (2 × 10^3 CFU/mL) in RPMI-1640 with 2% D-glucose (Merck, Darmstadt, Germany) prepared with MOPS (pH 7.0 ± 0.1 at 25 °C; Merck, Darmstadt, Germany) were exposed to the ranging concentration of lipopeptides (0.5–256 µg/mL) and incubated at 37 °C for 18 h and 24 h respectively. The experiments were conducted on 96-well microtiter polystyrene plates (Kartell, Italy). The MIC was taken as the lowest peptide concentration at which a noticeable growth of microorganisms was inhibited. All experiments were conducted in triplicate.

[1] = Determination of peptide hydrophobicity with RP-HPLC (adjusted retention time); type: physicochemical; conditions: 0.1% TFA, 25.0 °C, UV 214 nm, triplicate; for Adjusted retention time: Table 2, nC = carbon atoms in fatty acid chain; for Adjusted retention time / tR’: RP-HPLC C18, linear 10–55% acetonitrile over 60 min; for tR’: Table 3, adjusted retention time as hydrophobicity
Procedure: To determine peptide hydrophobicity, the Waters Alliance e2695 system with a Waters 2998 PDA Detector (software-Empower®3) was used. All analyses were carried out on a Phenomenex Luna C18(2) column (3.0 × 100 mm, 5 µm particle size, 100 Å pore size). The peptides were dissolved in water (0.1% TFA, v/v) to obtain a concentration of 1 g/L. UV detection at 214 nm was used, and aliquots (10 µL) were eluted with a linear 10–55% acetonitrile gradient in deionized water over 60 min at 25.0 ± 0.1 °C. The mobile phase flow rate was 0.5 mL/min. Both eluents contained 0.1% (v/v) of TFA. Each peptide sample was analyzed in triplicate.

[2] = tested on: human red blood cells (hRBCs); type: cell-based; conditions: red cells of human, 1 h
Procedure: The hemolysis assay was performed as described earlier according to the method of Avrahami and Shai. Fresh human red blood cells (hRBCs) with anticoagulant (EDTA) were rinsed three times with a PBS (Merck, Darmstadt, Germany) by centrifugation at 800× g for 10 min and resuspended in PBS. Lipopeptides were serially diluted on 96-well microtiter polystyrene plate and hRBCs were added to reach final volume of 100 µL. Peptide concentration ranged between 0.5 and 256 µg/mL and final hRBCs concentration was 4% (v/v). Controls for zero hemolysis (blank) and 100% hemolysis consisted of hRBCs suspended in PBS and 1% of Triton-X 100 (Merck, Darmstadt, Germany), respectively. The plate was incubated for 1 h at 37 °C and then centrifuged (800× g, 10 min, 4 °C). Subsequently, supernatant was […] to new microtiter plates and absorbance at 540 nm were measured. All experiments were conducted in triplicate. Protocol of the study received approval from the local Bioethics Committee at the Medical University of Gdańsk (NKBBN/262/2019).

[3] = tested on: S. aureus ATCC 33591 (MRSA); type: cell-based, Staphylococcus aureus; conditions: ATCC 33591, 18 h
Text: as §1, §2

S. aureus ATCC 25923 = type: cell-based, Staphylococcus aureus; conditions: ATCC 25923, 18 h
Text: as §1, §2

P. aeruginosa ATCC 9027 = type: cell-based, Pseudomonas aeruginosa; conditions: ATCC 9027, 18 h
Text: as §1, §2

[4] = tested on: K. pneumoniae ATCC 700603; type: cell-based, Klebsiella pneumoniae; conditions: ATCC 700603, 18 h
Text: as §1, §2

C. albicans ATCC 10231 = type: cell-based, Candida albicans; conditions: ATCC 10231, 24 h, pH 7
Text: as §1, §2

[5] = tested on: A. baumannii ATCC BAA-1605; type: cell-based, Acinetobacter baumannii; conditions: ATCC BAA-1605, 18 h
Text: as §1, §2

K. aerogenes ATCC 13048 = type: cell-based, Klebsiella aerogenes; conditions: ATCC 13048, 18 h
Text: as §1, §2

SMILES | MIC E1 (E. faecium ATCC 700221) | Adjusted retention time [1] | HC50 [2] | MIC S [3] | MIC SA (S. aureus ATCC 25923) | MIC PA (P. aeruginosa ATCC 9027) | MIC K [4] | MIC CA (C. albicans ATCC 10231) | MIC A [5] | MIC E2 (K. aerogenes ATCC 13048) | tR’ [1] | tR’ (adjusted retention time) ([1]; Table 1 and b9, measure of hydrophobicity, RP-HPLC, Phenomenex Luna C18(2) 3.0 × 100 mm, 5 µm, linear 10–55% acetonitrile in water over 60 min, 0.5 mL/min, peptide 1 g/L)
CCCCCCCCCCCC(=O)N[C@@H](CCCC)C(=O)N[C@@H](CCCNC(=N)N)C(=O)N[C@@H](CCCNC(=N)N)C(N)=O [compound 65, C12-NleRR-NH2] (HELM PEPTIDE1{[CCCCCCCCCCCC(=O)[*:2]].[Nle].R.R.[am]}$$$$V2.0) | 8 µg/mL (≈ 12.8 µM) | 39.958 min | >256 µg/mL | 8 µg/mL (≈ 12.8 µM) | 8 µg/mL (≈ 12.8 µM) | 8 µg/mL (≈ 12.8 µM) | 256 µg/mL (≈ 410 µM) | 16 (>16) µg/mL | 32 µg/mL (≈ 51.2 µM) | 256 µg/mL (≈ 410 µM) |  | 
CCCCCCCCCCCCCC(=O)N[C@@H](CC[S+](C)[O-])C(=O)N[C@@H](CCCNC(=N)N)C(=O)N[C@@H](CCCNC(=N)N)C(N)=O (stereo partly drawn) [compound 54, C14-M(O)RR-NH2] (HELM PEPTIDE1{[CCCCCCCCCCCCCC(=O)[*:2]].[CS(=O)CC[C@H](N[*:1])C(=O)[*:2]].R.R.[am]}$$$$V2.0) | 16 µg/mL (≈ 23.3 µM) |  | 116.28 (±1.77) µg/mL | 16 µg/mL (≈ 23.3 µM) | 32 µg/mL (≈ 46.6 µM) | 64 µg/mL (≈ 93.2 µM) | 256 µg/mL (≈ 373 µM) | 32 µg/mL (≈ 46.6 µM) | 64 µg/mL (≈ 93.2 µM) | >256 (-) µg/mL | 39.18 min | 
CCCCCCCCCCCC(=O)N[C@@H](CCCNC(=N)N)C(=O)N[C@@H](CCCNC(=N)N)C(N)=O [compound 3, C12-RR-NH2, reference compound] (HELM PEPTIDE1{[CCCCCCCCCCCC(=O)[*:2]].R.R.[am]}$$$$V2.0) | 32 µg/mL (≈ 62.5 µM) |  | >256 µg/mL | 32 µg/mL (≈ 62.5 µM) | 32 µg/mL (≈ 62.5 µM) | 128 µg/mL (≈ 250 µM) | >256 (-) µg/mL | 64 µg/mL (≈ 125 µM) | 256 µg/mL (≈ 500 µM) | >256 (-) µg/mL | 32.58 min | 32.58 min
CCCCCCCCCCCCCC(=O)N[C@@H](Cc1ccccc1)C(=O)N[C@@H](CCCNC(=N)N)C(=O)N[C@@H](CCCNC(=N)N)C(N)=O [compound 26, C14-FRR-NH2] (HELM PEPTIDE1{[CCCCCCCCCCCCCC(=O)[*:2]].F.R.R.[am]}$$$$V2.0) | 16 µg/mL (≈ 23.3 µM) |  | 39.09 (±1.18) µg/mL | 32 µg/mL (≈ 46.6 µM) | 4 µg/mL (≈ 5.82 µM) | 8 µg/mL (≈ 11.6 µM) | 64 µg/mL (≈ 93.2 µM) | 2 µg/mL (≈ 2.91 µM) | 128 µg/mL (≈ 186 µM) | 64 µg/mL (≈ 93.2 µM) | 47.75 min | 
CCCCCCCCCCCC(=O)N[C@H](C(=O)N[C@@H](CCCNC(=N)N)C(=O)N[C@@H](CCCNC(=N)N)C(N)=O)C(C)C [compound 93, C12-VRR-NH2] (HELM PEPTIDE1{[CCCCCCCCCCCC(=O)[*:2]].V.R.R.[am]}$$$$V2.0) | 16 µg/mL (≈ 26.2 µM) |  | 246.30 (±14.12) µg/mL | 16 µg/mL (≈ 26.2 µM) | 16 µg/mL (≈ 26.2 µM) | 32 µg/mL (≈ 52.4 µM) | >256 (-) µg/mL | 32 µg/mL (≈ 52.4 µM) | 128 µg/mL (≈ 210 µM) | 256 µg/mL (≈ 419 µM) | 37.17 min | 
CCCCCCCCCCCCCC(=O)N[C@@H](CC(C)C)C(=O)N[C@@H](CCCNC(=N)N)C(=O)N[C@@H](CCCNC(=N)N)C(N)=O [compound 46, C14-LRR-NH2] (HELM PEPTIDE1{[CCCCCCCCCCCCCC(=O)[*:2]].L.R.R.[am]}$$$$V2.0) | 8 µg/mL (≈ 12.3 µM) | 46.441 min | 29.50 (±1.05) µg/mL | 16 µg/mL (≈ 24.5 µM) | 4 µg/mL (≈ 6.13 µM) | 4 µg/mL (≈ 6.13 µM) | 128 µg/mL (≈ 196 µM) | 4 µg/mL (≈ 6.13 µM) | 64 µg/mL (≈ 98 µM) | 128 µg/mL (≈ 196 µM) | 46.44 min | 
CCCCCCCCCCCCCC(=O)N[C@@H](CSCNC(C)=O)C(=O)N[C@@H](CCCNC(=N)N)C(=O)N[C@@H](CCCNC(=N)N)C(N)=O [compound 14, C14-C(Acm)RR-NH2] (Myristoyl-Cys(Acm)-Arg-Arg-NH2) | 8 µg/mL (≈ 11.2 µM) |  | 39.72 (±1.25) µg/mL | 16 µg/mL (≈ 22.4 µM) | 16 µg/mL (≈ 22.4 µM) | 16 µg/mL (≈ 22.4 µM) | 256 µg/mL (≈ 359 µM) | 8 µg/mL (≈ 11.2 µM) | 16 µg/mL (≈ 22.4 µM) | 256 µg/mL (≈ 359 µM) | 43.24 min | 
CCCCCCCCCCCCCC(=O)N[C@@H](C)C(=O)N[C@@H](CCCNC(=N)N)C(=O)N[C@@H](CCCNC(=N)N)C(N)=O [compound 10, C14-ARR-NH2] (HELM PEPTIDE1{[CCCCCCCCCCCCCC(=O)[*:2]].A.R.R.[am]}$$$$V2.0) | 8 µg/mL (≈ 13.1 µM) |  | 41.08 (±0.62) µg/mL | 16 µg/mL (≈ 26.2 µM) | 8 µg/mL (≈ 13.1 µM) | 32 µg/mL (≈ 52.4 µM) | 256 µg/mL (≈ 419 µM) | 16 µg/mL (≈ 26.2 µM) | 32 µg/mL (≈ 52.4 µM) | 256 µg/mL (≈ 419 µM) | 40.92 min | 
CCCCCCCCCCCCCC(=O)N[C@@H](CCCCN)C(=O)N[C@@H](CCCNC(=N)N)C(=O)N[C@@H](CCCNC(=N)N)C(N)=O [compound 42, C14-KRR-NH2] (HELM PEPTIDE1{[CCCCCCCCCCCCCC(=O)[*:2]].K.R.R.[am]}$$$$V2.0) | 8 µg/mL (≈ 12 µM) |  | 212.08 (±6.12) µg/mL | 8 µg/mL (≈ 12 µM) | 8 µg/mL (≈ 12 µM) | 64 µg/mL (≈ 95.8 µM) | 128 µg/mL (≈ 192 µM) | 32 µg/mL (≈ 47.9 µM) | 64 µg/mL (≈ 95.8 µM) | 64 µg/mL (≈ 95.8 µM) | 35.66 min | 
CCCCCCCCCCCC(=O)N[C@@H](CCC)C(=O)N[C@@H](CCCNC(=N)N)C(=O)N[C@@H](CCCNC(=N)N)C(N)=O [compound 69, C12-NvaRR-NH2] (HELM PEPTIDE1{[CCCCCCCCCCCC(=O)[*:2]].[Nva].R.R.[am]}$$$$V2.0) | 16 µg/mL (≈ 26.2 µM) |  | 207.62 (±5.27) µg/mL | 16 µg/mL (≈ 26.2 µM) | 8 µg/mL (≈ 13.1 µM) | 32 µg/mL (≈ 52.4 µM) | 256 µg/mL (≈ 419 µM) | 32 µg/mL (≈ 52.4 µM) | 64 µg/mL (≈ 105 µM) | 256 µg/mL (≈ 419 µM) | 37.67 min | 
